Measured values from ChEMBL document CHEMBL5729144, “1-cyano-pyrrolidine derivatives as DUB inhibitors” (2022).

Target: T1, Ubiquitin carboxyl-terminal hydrolase 30 (Homo sapiens, UniProt Q70CQ3)
T1 sequence (Q70CQ3 whole entry): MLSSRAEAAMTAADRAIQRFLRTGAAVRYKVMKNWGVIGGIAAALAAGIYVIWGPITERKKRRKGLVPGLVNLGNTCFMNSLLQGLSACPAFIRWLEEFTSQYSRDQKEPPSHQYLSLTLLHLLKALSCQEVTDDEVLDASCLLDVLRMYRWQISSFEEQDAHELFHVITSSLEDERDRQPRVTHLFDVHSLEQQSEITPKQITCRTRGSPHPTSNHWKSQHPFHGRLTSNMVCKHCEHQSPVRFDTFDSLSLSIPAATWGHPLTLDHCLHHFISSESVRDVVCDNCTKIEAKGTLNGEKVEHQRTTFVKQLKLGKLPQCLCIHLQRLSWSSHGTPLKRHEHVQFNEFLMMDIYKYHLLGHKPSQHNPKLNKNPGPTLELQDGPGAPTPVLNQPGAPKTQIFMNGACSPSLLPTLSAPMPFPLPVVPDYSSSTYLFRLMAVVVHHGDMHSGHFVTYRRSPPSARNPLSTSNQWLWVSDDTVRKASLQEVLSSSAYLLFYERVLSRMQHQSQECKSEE
Experiment: A typical 8-point dilution series would be 100, 30, 10, 3, 1, 0.3, 0.1, 0.03 μM final. Reactions were performed in duplicate in black 384 well plates (small volume, Greiner 784076) in a final reaction volume of 21 μl. Either 1 μl of 50% DMSO or diluted compound was added to the plate. USP30 was diluted in reaction buffer (40 mM Tris, pH 7.5, 0.005% Tween 20, 0.5 mg/ml BSA, 5 mM beta-mercaptoethanol) to the equivalent of 0.05 μl/well and 10 μl of diluted USP30 was added to the compound. Enzyme and compound were incubated for 30 min at room temp. Reactions were initiated by the addition of 50 nM of TAMRA labelled peptide linked to ubiquitin via an iso-peptide bond as fluorescence polarisation substrate. Reactions were read immediately after addition of substrate and following a 2 h incubation at room temperature. Readings were performed on a Pherastar Plus (BMG Labtech). λ Excitation 540 nm; λ Emission 590 nm.

IC50 [nM]	Compound
< 100	N#Cc1cccc(-c2cc(-c3nc([C@@H]4CCCN4C#N)no3)ccn2)c1
< 100	N#Cc1ccc(-c2cccc(-c3nc(C4CCCN4C#N)no3)c2)s1 (centres undefined)
< 100	N#CN1CCCC1c1noc(-c2cccc(-c3cccc([N+](=O)[O-])c3)c2)n1 (centres undefined)
< 100	N#Cc1cccc(-c2cccc(-c3nc(C4CCCN4C#N)no3)c2)c1F (centres undefined)
